In brackets after ≈: the same amount, converted by molar mass. Like-named read-outs stand apart in the source and are kept apart here.
How the values were obtained:
C. krusei = test: Antifungal Activity Assay (broth microtiter MIC), C. krusei; format: cell-based, Candida krusei; settings: Pichia kudriavzevii, ATCC6258, 48 h
Outline: (§1)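 CLSI M27-A3 microdilution; RPMI 1640+MOPS; 2.5×10^3 CFU/mL final inoculum; cultures from Sabouraud dextrose agar, 35° C overnight; compound working solution 128 μg/mL from 1 mg/mL DMSO stock; visual MIC at 48 h vs growth control.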

[1] = tested on: Fusarium moniliforme (Fm); test: Growth inhibition assay of fungal pathogens, Fm; format: cell-based; settings: for IC90: Fusarium verticillioides, 48 h, read-out: Concentration at 90% Inhibition Fm
Outline: (§2)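 Pathogen growth in 17% V8 broth is measured by OD600 at 24 and 48 hours, after blank subtraction, in the presence of compound at 50, 10 and 2 ppm or 2, 0.4 and 0.08 ppm. Inhibition in percent comes from 48-hour readings against the DMSO control.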

human (hACC2) = human (hACC2) (Homo sapiens, UniProt O00763); test: In vitro ACC inhibition assay (ADP-Glo), hACC2; format: biochemical; settings: 5 nM ACC2, 20 μM ATP, 20 μM acetyl-CoA
human (hACC2), sequence (O00763 whole entry): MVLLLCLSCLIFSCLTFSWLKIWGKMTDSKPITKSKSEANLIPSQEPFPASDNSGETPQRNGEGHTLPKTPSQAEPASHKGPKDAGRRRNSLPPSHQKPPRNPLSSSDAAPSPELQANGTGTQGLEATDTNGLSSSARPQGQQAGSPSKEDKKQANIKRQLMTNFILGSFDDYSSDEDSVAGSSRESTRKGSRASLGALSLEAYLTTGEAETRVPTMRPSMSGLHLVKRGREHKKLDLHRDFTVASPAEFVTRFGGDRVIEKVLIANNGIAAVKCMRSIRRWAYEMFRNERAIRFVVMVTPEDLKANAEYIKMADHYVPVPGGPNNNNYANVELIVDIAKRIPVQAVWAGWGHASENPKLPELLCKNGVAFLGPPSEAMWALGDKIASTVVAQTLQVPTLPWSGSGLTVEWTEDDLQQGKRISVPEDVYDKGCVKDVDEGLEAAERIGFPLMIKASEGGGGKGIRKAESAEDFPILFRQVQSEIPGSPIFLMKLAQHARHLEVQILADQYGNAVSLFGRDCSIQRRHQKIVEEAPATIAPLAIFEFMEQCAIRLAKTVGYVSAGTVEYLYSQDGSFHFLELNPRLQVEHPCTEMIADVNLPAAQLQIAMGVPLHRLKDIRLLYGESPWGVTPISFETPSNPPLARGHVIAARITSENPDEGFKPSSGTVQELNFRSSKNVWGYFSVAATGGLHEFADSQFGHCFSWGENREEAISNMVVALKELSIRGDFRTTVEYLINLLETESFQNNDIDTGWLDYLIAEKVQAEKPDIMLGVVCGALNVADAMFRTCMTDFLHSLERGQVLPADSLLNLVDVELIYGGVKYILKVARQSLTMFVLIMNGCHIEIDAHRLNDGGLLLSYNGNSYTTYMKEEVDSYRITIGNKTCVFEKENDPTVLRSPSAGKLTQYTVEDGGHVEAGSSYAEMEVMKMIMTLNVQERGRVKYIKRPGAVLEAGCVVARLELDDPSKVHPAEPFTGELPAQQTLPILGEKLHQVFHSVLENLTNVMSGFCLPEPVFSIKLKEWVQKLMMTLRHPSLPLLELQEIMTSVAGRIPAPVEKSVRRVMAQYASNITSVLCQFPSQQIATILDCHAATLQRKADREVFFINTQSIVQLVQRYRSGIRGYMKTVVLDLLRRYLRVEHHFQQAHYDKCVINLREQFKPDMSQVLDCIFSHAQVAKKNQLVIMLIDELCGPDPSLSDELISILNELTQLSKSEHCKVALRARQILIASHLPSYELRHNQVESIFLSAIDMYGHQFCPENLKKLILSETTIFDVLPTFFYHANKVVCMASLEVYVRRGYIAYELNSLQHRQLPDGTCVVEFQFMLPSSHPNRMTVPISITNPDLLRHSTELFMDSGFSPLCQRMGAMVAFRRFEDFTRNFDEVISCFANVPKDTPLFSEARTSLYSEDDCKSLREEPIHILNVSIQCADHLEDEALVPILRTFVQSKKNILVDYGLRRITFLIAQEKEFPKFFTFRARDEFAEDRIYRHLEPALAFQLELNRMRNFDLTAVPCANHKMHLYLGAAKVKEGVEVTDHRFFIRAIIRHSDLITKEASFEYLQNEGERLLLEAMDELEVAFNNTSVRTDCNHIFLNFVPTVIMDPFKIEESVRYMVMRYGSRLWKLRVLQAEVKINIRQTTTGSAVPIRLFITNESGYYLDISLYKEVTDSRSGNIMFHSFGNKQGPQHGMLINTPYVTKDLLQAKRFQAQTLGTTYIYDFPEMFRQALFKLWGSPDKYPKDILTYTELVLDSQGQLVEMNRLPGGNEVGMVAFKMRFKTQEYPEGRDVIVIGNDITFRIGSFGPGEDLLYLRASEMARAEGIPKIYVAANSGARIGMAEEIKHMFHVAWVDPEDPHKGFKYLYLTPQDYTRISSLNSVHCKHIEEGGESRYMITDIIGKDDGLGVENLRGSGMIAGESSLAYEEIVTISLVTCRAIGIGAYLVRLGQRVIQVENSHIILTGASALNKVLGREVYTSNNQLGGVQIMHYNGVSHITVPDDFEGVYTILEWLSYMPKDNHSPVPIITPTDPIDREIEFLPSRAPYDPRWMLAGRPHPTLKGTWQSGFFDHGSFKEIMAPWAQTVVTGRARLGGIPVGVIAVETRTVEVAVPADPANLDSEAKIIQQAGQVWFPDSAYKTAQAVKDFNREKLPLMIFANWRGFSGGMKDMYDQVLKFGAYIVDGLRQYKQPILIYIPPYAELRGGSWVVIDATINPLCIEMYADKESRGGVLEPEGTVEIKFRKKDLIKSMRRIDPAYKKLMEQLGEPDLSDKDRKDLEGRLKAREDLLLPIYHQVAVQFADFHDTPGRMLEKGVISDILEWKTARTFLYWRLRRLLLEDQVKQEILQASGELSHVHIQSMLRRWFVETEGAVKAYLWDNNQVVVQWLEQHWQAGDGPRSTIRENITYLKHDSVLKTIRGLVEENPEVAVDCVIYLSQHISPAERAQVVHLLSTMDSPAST
Protocol: The detailed procedure is as follows. […] 10 μL ADP glo reagent was added. […] 20 μL kinase detection reagent was added.

Rhizoctonia solani (Rs) = test: Growth inhibition assay of fungal pathogens, Rs; format: cell-based; settings: 48 h
C. albicans = test: Antifungal Activity Assay (broth microtiter MIC), C. albicans; format: cell-based, Candida albicans; settings: Candida albicans, ATCC90028, 48 h
Outline: as §1

Diplodia maydis (Dm) = test: Growth inhibition assay of fungal pathogens, Dm; format: cell-based; settings: Stenocarpella maydis, 48 h
Outline: as §2

Septoria tritici (St) = test: Growth inhibition assay of fungal pathogens, St; format: cell-based; settings: Zymoseptoria tritici, 48 h
Outline: as §2

C. parapsilosis = test: Antifungal Activity Assay (broth microtiter MIC), C. parapsilosis; format: cell-based, Candida parapsilosis; settings: Lodderomyces parapsilosis, ATCC22019, 48 h
Outline: as §1

[2] = tested on: Phytophthora capsici (Pc); test: Growth inhibition assay of fungal pathogens, Pc; format: cell-based; settings: 48 h
Outline: as §2

[3] = tested on: Collectotrichum graminicola (Cg); test: Growth inhibition assay of fungal pathogens, Cg; format: cell-based; settings: 48 h
Outline: as §2

[4] = tested on: Fusarium virguliforme (Fv); test: Growth inhibition assay of fungal pathogens, Fv; format: cell-based; settings: 48 h
Outline: as §2

[5] = Table 3a, ATCC 6258, 3 replicates, MIC recorded at 48 h, read-out: MIC, C. krusei ATCC 6258
[6] = Table 3b (additional results), ATCC 6258, 3 replicates, MIC recorded at 48 h, read-out: MIC, C. krusei ATCC 6258
[7] = Fusarium moniliforme, growth inhibition at 48 hours vs 2% DMSO control
[8] = Fusarium moniliforme, growth inhibition vs 2% DMSO control at 48 hours
[9] = mycelial plugs, growth inhibition at 48 hours vs 2% DMSO control, read-out: Concentration at 90% Inhibition Rs
[10] = mycelial plugs, growth inhibition vs 2% DMSO control at 48 hours, read-out: Concentration at 90% Inhibition Rs
[11] = Table 3a, ATCC 90028, 3 replicates, MIC recorded at 48 h, read-out: MIC, C. albicans ATCC 90028
[12] = Table 3b (additional results), ATCC 90028, 3 replicates, MIC recorded at 48 h, read-out: MIC, C. albicans ATCC 90028
[13] = Diplodia maydis, growth inhibition at 48 hours vs 2% DMSO control, read-out: Concentration at 90% Inhibition Dm
[14] = Diplodia maydis, growth inhibition vs 2% DMSO control at 48 hours, read-out: Concentration at 90% Inhibition Dm
[15] = Septoria tritici, growth inhibition at 48 hours vs 2% DMSO control, read-out: Concentration at 90% Inhibition St
[16] = Septoria tritici, growth inhibition vs 2% DMSO control at 48 hours, read-out: Concentration at 90% Inhibition St
[17] = Table 3a, ATCC 22019, 3 replicates, MIC recorded at 48 h, read-out: MIC, C. parapsilosis ATCC 22019
[18] = Table 3b (additional results), ATCC 22019, 3 replicates, MIC recorded at 48 h, read-out: MIC, C. parapsilosis ATCC 22019
[19] = growth inhibition at 48 hours vs 2% DMSO control, read-out: Concentration at 90% Inhibition Pc
[20] = growth inhibition vs 2% DMSO control at 48 hours, read-out: Concentration at 90% Inhibition Pc
[21] = Collectotrichum graminicola, growth inhibition at 48 hours vs 2% DMSO control, read-out: Concentration at 90% Inhibition Cg
[22] = Collectotrichum graminicola, growth inhibition vs 2% DMSO control at 48 hours, read-out: Concentration at 90% Inhibition Cg
[23] = growth inhibition at 48 hours vs 2% DMSO control, read-out: Concentration at 90% Inhibition Fv
[24] = growth inhibition vs 2% DMSO control at 48 hours, read-out: Concentration at 90% Inhibition Fv

Row | SMILES | MIC (C. krusei; [5]) [µg/mL] | MIC (C. krusei; [6]) [µg/mL] | IC90 [1, 7] [µg/mL] | IC90 [1, 8] [µg/mL] | IC50 (human (hACC2); Table 2a) [nM] | IC50 (human (hACC2); Table 2b, additional results) [nM] | IC90 (Rhizoctonia solani (Rs); [9]) [µg/mL] | IC90 (Rhizoctonia solani (Rs); [10]) [µg/mL] | MIC (C. albicans; [11]) [µg/mL] | MIC (C. albicans; [12]) [µg/mL] | IC90 (Diplodia maydis (Dm); [13]) [µg/mL] | IC90 (Diplodia maydis (Dm); [14]) [µg/mL] | IC90 (Septoria tritici (St); [15]) [µg/mL] | IC90 (Septoria tritici (St); [16]) [µg/mL] | MIC (C. parapsilosis; [17]) [µg/mL] | MIC (C. parapsilosis; [18]) [µg/mL] | IC90 [2, 19] [µg/mL] | IC90 [2, 20] [µg/mL] | IC90 [3, 21] [µg/mL] | IC90 [3, 22] [µg/mL] | also measured
1 | COCCO[C@@H](Cn1c(=O)n(CC(=O)N2CCCC2)c(=O)c2c(C)c(-n3nccn3)sc21)c1cc(F)ccc1OC [Compound I-79, (R)-1-(2-(5-fluoro-2-methoxyphenyl)-2-(2-methoxy-ethoxy)ethyl)-5-methyl-3-(2-oxo-2-(pyrrolidin-1-yl)ethyl)-6-(2H-1,2,3-tria-zol-2-yl)thieno[2,3-d]pyrimidine-2,4(1H,3H)-dione] | 2.1 to 4 (≈ 3.58 to 6.82 µM) | > 4.01 | 0.4 (≈ 0.682 µM) | 0.4 (≈ 0.682 µM) | 10 to 40 | 10 to 40 | 10 (≈ 17 µM) | > 50 | 2.1 to 4 (≈ 3.58 to 6.82 µM) | > 4.01 | 2 (≈ 3.41 µM) | 2 (≈ 3.41 µM) | > 50 | > 50 | 2.1 to 4 (≈ 3.58 to 6.82 µM) | 2.01 to 4 (≈ 3.43 to 6.82 µM) | > 50 | > 50 | 2 (≈ 3.41 µM) | 10 (≈ 17 µM) | IC90 [4, 23]: 2 µg/mL (≈ 3.41 µM); IC90 [4, 24]: 10 µg/mL (≈ 17 µM)
2 | COCCO[C@@H](Cn1c(=O)n(CC(=O)NC(C)C)c(=O)c2c(C)c(-n3nccn3)sc21)c1cc(F)ccc1OC [Compound I-80, (R)-2-(1-(2-(5-fluoro-2-methoxyphenyl)-2-(2-methoxy-ethoxy)ethyl)-5-methyl-2,4-dioxo-6-(2H-1,2,3-triazol-2-yl)-1,4-dihydro-thieno[2,3-d]pyrimidin-3(2H)-yl)-N-isopropylacetamide] |  |  |  |  | > 40 | > 40 |  |  |  |  |  |  |  |  |  |  |  |  |  |  | MIC (C. krusei; read-out: MIC, C. krusei ATCC 6258, Table 3a, 3 replicates, MIC recorded at 48 h): 2.1 to 4 µg/mL (≈ 3.65 to 6.96 µM); MIC (C. krusei; read-out: MIC, C. krusei ATCC 6258, Table 3b (additional results), 3 replicates, MIC recorded at 48 h): > 4.01 µg/mL; Concentration at 90% Inhibition Fm [1, 7]: AA (compound concentration of 0.08 ppm at 90% inhibition of fungal pathogens); IC90 [1]: 0.08 µg/mL (≈ 0.139 µM); IC90 (Rhizoctonia solani (Rs); read-out: Concentration at 90% Inhibition Rs, Rhizoctonia solani, mycelial plugs, growth inhibition at 48 hours vs 2% DMSO control): 10 µg/mL (≈ 17.4 µM); IC90 (Rhizoctonia solani (Rs); read-out: Concentration at 90% Inhibition Rs, Rhizoctonia solani, mycelial plugs, growth inhibition vs 2% DMSO control at 48 hours): > 50 µg/mL; MIC (C. albicans; read-out: MIC, C. albicans ATCC 90028, Table 3a, 3 replicates, MIC recorded at 48 h): 2.1 to 4 µg/mL (≈ 3.65 to 6.96 µM); MIC (C. albicans; read-out: MIC, C. albicans ATCC 90028, Table 3b (additional results), 3 replicates, MIC recorded at 48 h): > 4.01 µg/mL; IC90 (Diplodia maydis (Dm); read-out: Concentration at 90% Inhibition Dm, Diplodia maydis, growth inhibition at 48 hours vs 2% DMSO control): > 50 µg/mL; IC90 (Diplodia maydis (Dm); read-out: Concentration at 90% Inhibition Dm, Diplodia maydis, growth inhibition vs 2% DMSO control at 48 hours): > 50 µg/mL; IC90 (Septoria tritici (St); read-out: Concentration at 90% Inhibition St, Septoria tritici, growth inhibition at 48 hours vs 2% DMSO control): > 50 µg/mL; IC90 (Septoria tritici (St); read-out: Concentration at 90% Inhibition St, Septoria tritici, growth inhibition vs 2% DMSO control at 48 hours): > 50 µg/mL; MIC (C. parapsilosis; read-out: MIC, C. parapsilosis ATCC 22019, Table 3a, 3 replicates, MIC recorded at 48 h): 2.1 to 4 µg/mL (≈ 3.65 to 6.96 µM); MIC (C. parapsilosis; read-out: MIC, C. parapsilosis ATCC 22019, Table 3b (additional results), 3 replicates, MIC recorded at 48 h): 2.01 to 4 µg/mL (≈ 3.5 to 6.96 µM); IC90 ([2]; read-out: Concentration at 90% Inhibition Pc, Phytophthora capsici, growth inhibition at 48 hours vs 2% DMSO control): > 50 µg/mL; IC90 ([2]; read-out: Concentration at 90% Inhibition Pc, Phytophthora capsici, growth inhibition vs 2% DMSO control at 48 hours): > 50 µg/mL; IC90 ([3]; read-out: Concentration at 90% Inhibition Cg, Collectotrichum graminicola, growth inhibition at 48 hours vs 2% DMSO control): > 50 µg/mL; IC90 ([3]; read-out: Concentration at 90% Inhibition Cg, Collectotrichum graminicola, growth inhibition vs 2% DMSO control at 48 hours): > 50 µg/mL; IC90 ([4]; read-out: Concentration at 90% Inhibition Fv, Fusarium virguliforme, growth inhibition at 48 hours vs 2% DMSO control): 2 µg/mL (≈ 3.48 µM); IC90 ([4]; read-out: Concentration at 90% Inhibition Fv, Fusarium virguliforme, growth inhibition vs 2% DMSO control at 48 hours): 10 µg/mL (≈ 17.4 µM)
3 | COc1ccc(F)cc1[C@H](Cn1c(=O)n(CC(=O)N2CCCC2)c(=O)c2c(C)c(-n3nccn3)sc21)OCCO [Compound I-81, (R)-1-(2-(5-fluoro-2-methoxyphenyl)-2-(2-hydroxy-ethoxy)ethyl)-5-methyl-3-(2-oxo-2-(pyrrolidin-1-yl)ethyl)-6-(2H-1,2,3-triazol-2-yl)thieno[2,3-d]pyrimidine-2,4(1H,3H)-dione] | 2.1 to 4 (≈ 3.67 to 6.99 µM) | > 4.01 | 0.08 (≈ 0.14 µM) | 0.08 (≈ 0.14 µM) | 5 to 10 | 5 to 10 | 0.08 (≈ 0.14 µM) | 0.08 (≈ 0.14 µM) | 2.1 to 4 (≈ 3.67 to 6.99 µM) | 2.01 to 4 (≈ 3.51 to 6.99 µM) | 2 (≈ 3.49 µM) | 2 (≈ 3.49 µM) | > 50 | > 50 | 2.1 to 4 (≈ 3.67 to 6.99 µM) | 2.01 to 4 (≈ 3.51 to 6.99 µM) | > 50 | > 50 | 2 (≈ 3.49 µM) | 2 (≈ 3.49 µM) | IC90 [4, 23]: 0.4 µg/mL (≈ 0.699 µM); IC90 [4, 24]: 0.4 µg/mL (≈ 0.699 µM)
